# Measurements as given in ChEMBL document CHEMBL1150729, “Constituents of Paramichelia baillonii: a new antitumor germacranolide alkaloid” (1987).
# Activity calls are given as the source filed them. The calls are words filed in the database; no cut-off is given here.
# Tests used:
# Type in all cases: functional
# 9KB = experiment: (§1) Cytotoxicity against human 9KB cells
# [1] = as §1; settings: read-out: ED50 (the source's name)
# [2] = Cytotoxicity against human Laryngeal epidermoid carcinoma cells; settings: read-out: ED50 (the source's name)
# KB = experiment: Cytotoxicity against human KB cells; settings: read-out: ED50 (the source's name)
compound,measurement,setting,value
C/C1=C\CC[C@@]2(C)O[C@H]2[C@H]2OC(=O)[C@@H](C)[C@@H]2CC1,Activity,9KB,inactive
C=C1C(=O)O[C@@H]2C3O[C@]3(C)CC/C=C(\C)CC[C@@H]12 (stereo not given in full),EC50,[1],0.45 µg/mL
same,EC50,[2],0.76 µg/mL
C/C1=C\CC[C@@]2(C)O[C@H]2[C@H]2OC(=O)[C@@H](CNC[C@@H]3C(=O)O[C@H]4[C@H]3CC/C(C)=C/CC[C@@]3(C)O[C@@H]43)[C@@H]2CC1,EC50,KB,0.6 µg/mL
O=C1c2ccccc2-c2c3c(cc4ccnc1c24)OCO3 [LIRIODENINE],EC50,[1],1.6 µg/mL
